# Reference: US10214502B2, “Method of inhibiting apolipoprotein-E expression while increasing expression of at least one of LDL-receptor protein or AbcA1 protein comprising administering a small compound” (California State University, Fresno, priority 2016, dated 2019)
# Test system: apoE3
# Experiment: ELISA of apoE3 levels in conditioned media of compound-treated mouse cortical astrocyte cells
# Assay type: cell-based
# Details: 10 μM compound, 24 hours, normalized to cell protein, relative to DMSO treated cells
# Description: ApoE inhibition can be readily determined by any one of several assays and techniques known to those of ordinary skill in the art, including the enzyme-linked immunosorbant assay (ELISA). In the experimental results shown in Table 2 and FIG. 5, the ELISA assay was carried out on cortical astrocyte cells from mice. Astrocyte cells produce apoE, LDLR and AbcA1 proteins.
# The experiments involved treating mouse cortical astrocyte cells with the claimed compounds at 10 μM concentration for an incubation time of 24 hrs. DMSO solvent was used as a negative control, because the compounds were dissolved in DMSO when applied to the cells.
# The ELISA technique involves immobilizing an apoE-specific capture antibody to a 96-well plate, addition of sample (conditioned medium from mouse cortical astrocyte cells treated with the compound for 24 hours), and detection of the bound apoE using a second apoE-specific biotinylated antibody and streptavidin-HRP.
# The Mabtech ELISA kit detects the presence of the three apoE isoforms: apoE2, apoE3, and apoE4.
# To obtain the data shown in Table 2 and FIG. 5, the mouse cortical astrocyte cells were maintained in DMEM medium (Invitrogen) supplemented with 10 mM HEPES, 1 mM sodium pyruvate, 4.5 g/L glucose, 1% penicillin/streptomycin, and 10% fetal bovine growth serum (Invitrogen) at 37° C., with 5% CO2.
# The cells (6×10^4 cells/24-well plate) were grown for 1 day in RPMI, followed by a 24 hour equilibration in serum-free Opti-MEM (Life Technologies). Treatments were carried out in triplicate with […] of fresh Opti-MEM containing 10 μM of compound or vehicle (0.1% DMSO) for 24 hours. […] ApoE concentration in the sample was calculated based on a standard curve derived using known amounts of purified apoE (from Biodesign).
# The protein levels in the cells in the 24-well plates were measured using BCA Protein Assay Kit (from Pierce) and used to normalize the data. […] Sample apoE3 concentrations were represented relative to the DMSO treated cells.
# The bars in FIG. 5 reflect the respective mean level apoE3 in the media for each compound with an indication of one […].
Compound,"ApoE3 Levels in Cell Media, Average of Three Tests","ApoE3 Levels in Cell Media, Test 1","ApoE3 Levels in Cell Media, Test 2","ApoE3 Levels in Cell Media, Test 3"
O=C(c1ccc2ccccc2c1)N1CCOCC1 [Compound 90],98.59 % of the DMSO control,90.22 % of the DMSO control,91.69 % of the DMSO control,113.8441 % of the DMSO control
O=C(c1ccc2ccccc2c1)N1CCCC1 [Compound 91],104.6561 % of the DMSO control,126.8225 % of the DMSO control,87.2 % of the DMSO control,99.94 % of the DMSO control
O=C(c1ccc2ccccc2c1)N1CCCCC1 [Compound 92],115.1327 % of the DMSO control,128.0284 % of the DMSO control,127.4327 % of the DMSO control,89.94 % of the DMSO control
CCC(C)NS(=O)(=O)c1ccc2ccccc2c1 (stereo not drawn) [Compound 93],102.6197 % of the DMSO control,103.3801 % of the DMSO control,109.2249 % of the DMSO control,95.25 % of the DMSO control
CC(C)CNS(=O)(=O)c1ccc2ccccc2c1 [Compound 94],106.8342 % of the DMSO control,99.12 % of the DMSO control,91.64 % of the DMSO control,129.7451 % of the DMSO control
COc1ccc(NC(=O)c2ccc3ccccc3c2)cc1 [Compound 99],104.5892 % of the DMSO control,106.2723 % of the DMSO control,116.3467 % of the DMSO control,91.15 % of the DMSO control
COc1cccc(NC(=O)c2ccc3ccccc3c2)c1 [Compound 100],84.98 % of the DMSO control,91.06 % of the DMSO control,75.01 % of the DMSO control,88.88 % of the DMSO control
O=C(Nc1ccc(Br)cc1)c1ccc2ccccc2c1 [Compound 101],96.05 % of the DMSO control,93.29 % of the DMSO control,88.21 % of the DMSO control,106.6434 % of the DMSO control
O=S(=O)(Nc1ccccc1)c1ccc2ccccc2c1 [Compound 102],97.14 % of the DMSO control,95.99 % of the DMSO control,98.8 % of the DMSO control,96.62 % of the DMSO control
CCC(C)NS(=O)(=O)c1cccc2ccccc12 (stereo not drawn) [Compound 120],88.28 % of the DMSO control,100.2942 % of the DMSO control,88.31 % of the DMSO control,76.25 % of the DMSO control
CC(C)CNS(=O)(=O)c1cccc2ccccc12 [Compound 121],113.6663 % of the DMSO control,113.2938 % of the DMSO control,128.755 % of the DMSO control,98.9502 % of the DMSO control
O=S(=O)(c1cccc2ccccc12)N1CCCCC1 [Compound 122],92.0952 % of the DMSO control,100.1387 % of the DMSO control,96.02 % of the DMSO control,80.1244 % of the DMSO control
O=S(=O)(c1cccc2ccccc12)N1CCCC1 [Compound 123],98.83 % of the DMSO control,85.69 % of the DMSO control,90.18 % of the DMSO control,120.6126 % of the DMSO control
O=S(=O)(NC1CCCCC1)c1cccc2ccccc12 [Compound 124],95.1 % of the DMSO control,96.7646 % of the DMSO control,90.1191 % of the DMSO control,98.42 % of the DMSO control
CCN(CC)S(=O)(=O)c1cccc2ccccc12 [Compound 126],89.15 % of the DMSO control,93.7 % of the DMSO control,89.1 % of the DMSO control,84.66 % of the DMSO control
CCCCN(CCCC)S(=O)(=O)c1ccc2ccccc2c1 [Compound 128],83.97 % of the DMSO control,85.63 % of the DMSO control,91.51 % of the DMSO control,74.78 % of the DMSO control
CC(C)N(C(C)C)S(=O)(=O)c1ccc2ccccc2c1 [Compound 130],89.39 % of the DMSO control,89.06 % of the DMSO control,79.12 % of the DMSO control,100.0032 % of the DMSO control
CC(NS(=O)(=O)c1ccc2ccccc2c1)c1ccccc1 (stereo not drawn) [Compound 131],85.9 % of the DMSO control,78.38 % of the DMSO control,91.41 % of the DMSO control,87.92 % of the DMSO control
CCC(C)NS(=O)(=O)c1ccc(-c2ccccc2)cc1 (stereo not drawn) [Compound 132],86.84 % of the DMSO control,81.51 % of the DMSO control,85.61 % of the DMSO control,93.42 % of the DMSO control
O=S(=O)(NCc1ccccc1)c1ccc(-c2ccccc2)cc1 [Compound 135],99.36 % of the DMSO control,93.55 % of the DMSO control,101.8388 % of the DMSO control,102.6888 % of the DMSO control
c1ccc2cc(CN3CCOCC3)ccc2c1 [Compound 138],104.8487 % of the DMSO control,103.8509 % of the DMSO control,97.61 % of the DMSO control,113.0808 % of the DMSO control
c1ccc2cc(CN3CCCCC3)ccc2c1 [Compound 141],80.31 % of the DMSO control,80.57 % of the DMSO control,95.09 % of the DMSO control,65.29 % of the DMSO control
"CC(C)CNC(c1ccccc1)(c1ccccc1)c1ccc2ccccc2c1 [Triarylmethyl Amine Compound No. 43, reference compound]",82.46 % of the DMSO control,86.35 % of the DMSO control,74.72 % of the DMSO control,86.32 % of the DMSO control

# Same assay, conditions: 10 μM, 24 hrs, ELISA of media
row,Compound,"apoE (apoE3) expression compared to the control DMSO, in words"
1,"CC(C)CNC(c1ccccc1)(c1ccccc1)c1ccc2ccccc2c1 [Triarylmethyl Amine Compound No. 43, reference compound]",effectively decrease
